Measured values from a melting point compilation (Tetko et al.; mined from patent text by program, amines drawn as free bases though some values may be those of a salt).

SMILES	melting point
COc1ccc(N2CCN(C(=O)C(C)(C)C3OCCc4ccccc43)CC2)cc1 (stereo not drawn)	120 to 121 °C
CC1(C)CC(=O)N(CCCCN2CCN(c3nc(C(C)(C)C)cs3)CC2)C(=O)C1	93 to 94 °C
COc1ccc(C(=O)c2sccc2OC)cc1	98 to 99 °C
O=c1cc(-c2ccc(O)c(F)c2)oc2ncccc12	267 to 268 °C
Cc1csc(N2CCN(CC(O)c3ccc(O)c(C(N)=O)c3)CC2)n1 (stereo not drawn)	182 °C
CCCc1c(C(=O)C=C(C)C)c2ccc(C(N)=O)cc2n1Cc1cc2c(cc1Cl)OCO2	227 to 229 °C
CN(C)C=C(C#N)CC#N	49 °C
COc1nc2cc(Cl)c(Cl)c(NS(C)(=O)=O)c2nc1OC	225 to 227 °C
COc1cc(F)c(C)cc1N	108 to 110 °C
CC(=O)Nc1ccc(OC2SCC(O)C(O)C2O)cn1 (stereo not drawn)	209 °C
O=C1CCOc2c(O)cccc21	93 to 96 °C
COc1ccc(O)c(Br)c1	37 to 38 °C
O=C(Nc1ccc(SC(F)(F)F)cc1)c1ccc2c(c1O)CCCC2	167 °C
CCOc1cc(-c2cc(C(F)(F)F)n3ncc(-c4nc(-c5ccc(N)nc5)no4)c3n2)ccc1C(F)(F)F	263 °C
CC(=O)NC[C@H]1CN(c2ccc(C(=O)c3cnc4c5ccccc5ccn34)cc2)C(=O)O1	239 to 240 °C
Clc1cccc(OC2CCN(CCc3c[nH]c4ccccc34)CC2)c1	120 to 123 °C
c1ccc(COc2cccc(-c3nc(COc4ccc(CCCn5ccnc5)cc4)co3)c2)cc1	112 to 113 °C
CON(C(=O)c1cn(C)nc1C(F)F)C(C)c1cccc(I)c1 (stereo not drawn)	136 to 138 °C
CCCCN(C1CCCOc2ccccc21)S(=O)(=O)CC (stereo not drawn)	62 to 65 °C
Cn1cc(-c2ccc3nnc(C(F)(F)c4ccc5nc(NC(=O)C6CC6)cn5n4)n3c2)cn1	275 °C
Cc1ccc(C2OC(CO)C(O)C(O)C2O)cc1Cc1ccc(-c2ccc(F)cc2)s1 (stereo not drawn)	106 to 107 °C

SMILES	melting point
CN1CCN(c2nn(S(=O)(=O)c3ccccc3)c3ccc(Br)cc23)CC1	135 to 137 °C
Cc1ccc(Nc2c3ccccc3nc3ccccc23)cc1[N+](=O)[O-]	> 280 °C
O=C(Cc1ccccc1)NC1C(=O)N2C1SC1(CCN(c3ccccc3)CC1)C2C(=O)OCc1ccccc1 (stereo not drawn)	120 to 121 °C
CCOC1=Nc2c(C)cccc2Nc2ncccc21	135 to 136 °C
COc1ccc2c(c1OC)C(=O)C(O)=C(C)C2=O	218 °C
CC(C)(CCCCCC(O)CCCCCC(C)(C)CC(=O)c1cccnc1)COC(=O)c1cccnc1 (stereo not drawn)	65 to 67 °C
CCOC(=O)c1c(CN(CC)CC)nc2sc(C)c(C)c2c1-c1ccc(OC)cc1	116 to 118 °C
COc1ccc(-c2ccc3c(C(=O)c4ccn5c4CSC5c4cccnc4)c[nH]c3c2)cc1 (stereo not drawn)	246 to 248 °C
COC(=O)c1ccc2occ(-c3cccc(OC(F)(F)F)c3)c2c1	93 to 94 °C
COP(=O)(OC)C(NC=O)P(=O)(OC)OC	95 °C
C=CC(=O)OCc1c(Br)c(Br)c(Br)c(COC(=O)C=C)c1Br	105 to 108 °C
CC(C)N1C(=O)C(C)(C)N=C(c2ccccc2Cl)c2cc(N)ccc21	243 to 244 °C
O=C(Nc1ccc2cc(CN3CCCC3)cnc2c1)c1ccc(-c2ccc(Cl)cc2)nc1	223 to 225 °C
O=C(c1ccc(Cl)cc1)c1ccc2[nH]c(=O)nc(-c3cccc(Cl)c3)c2c1	256 °C
COC(=O)CNC(=O)c1cc(C(=O)OC)c(O)c2ncc(Cc3ccc(F)cc3)cc12	209 to 210 °C
CC(C)Cn1c(CON2C(=O)c3ccccc3C2=O)nc2c(N)nc3ccccc3c21	221 to 222 °C
CC(=O)OCc1ccc2oc(=O)c(C(=O)Oc3ccccc3I)cc2c1	156 to 158 °C
Cc1c(NC(=O)CC(C)(C)C)c(C)c2c(c1-c1ccncc1)OCC2c1ccc(C(C)C)cc1 (stereo not drawn)	150 to 152 °C
O=C(NCCN1CCC(O)(c2ccc(Cl)cc2)CC1)c1ccc(F)cc1[N+](=O)[O-]	144 °C
C=CCN1C(=O)NC(C)(C)C1=O	66.2 to 68.7 °C
COc1ccc2c(c1)OCC(n1ccnc1)C2=O (stereo not drawn)	151 to 155 °C

Continued, values first:

melting point	SMILES
230 to 233 °C	O=C1OC(P(=O)(O)c2ccccc2)c2ccccc21 (stereo not drawn)
192 to 194 °C	CN1CCC(c2c[nH]c3ccc(OS(=O)(=O)c4ccccc4)cc23)CC1
142 to 143 °C	CCCCCCCCCC(=O)c1ccc(O)c(C(=O)Nc2ccc([N+](=O)[O-])cc2)c1
252 °C	N#Cc1ccc(N2CCN(Cc3cnc4c(c3)NC(=O)[C@@H]3CCCN43)CC2)cc1
169 to 171 °C	O=c1[nH]c(=O)n(CCCCN2CCC(OC(c3ccccc3)c3ccccc3)CC2)c2cc(Cl)ccc12
128 to 130 °C	Cc1ccc(N=C(N(Cc2ccccc2)C2CCCCC2)N(Cc2ccccc2)C2CCCCC2)cc1
164 to 166 °C	CCC(NC(=S)Nc1nc(C)cs1)C(C)C (stereo not drawn)
188 to 190 °C	Cc1ccccc1S(=O)(=O)NC(=O)c1ccc2c(ccn2Cc2cccc(NC(=O)OC3CCCC3)c2)c1
212 to 213 °C	Cc1nc(N2CCN(Cc3ccc(C(F)(F)F)cc3)C2=O)sc1-c1cc[nH]n1
182 to 185 °C	Cc1c(CN2CCc3c(c4cccc(Br)c4n3C)C2=O)ncn1S(=O)(=O)N(C)C
120 °C	O=C(Nc1ccccc1)C1=C(O)c2ccccc2N(c2ccccc2)C1
112 to 114 °C	Cc1c(SCCCCl)ccnc1CSc1nc2ccccc2[nH]1
213 to 214 °C	COc1ccc2c(c1)C(=O)N(c1ccc3c(cnn3C)c1)C2
213 to 214 °C	CC(C)(C)c1ccc(CNC(=O)C(Cc2ccccc2)NC(=O)Nc2n[nH]c(=S)s2)cc1 (stereo not drawn)
149 °C	CCOC(=O)c1cc2ccc(F)c(C)c2[nH]1
270 to 272 °C	NNC(=O)c1cccc2nnsc12
180 to 181 °C	CCc1nc2c(C)cc(C)nc2n1Cc1ccc2c(c1)c1ccccc1n2CCC#N
130 to 132 °C	OCc1ccc2cc(OCc3ccccc3)ccc2c1
284 to 287 °C	Cc1nnc(-c2sc(N3CCN(Cc4ccccc4)C3=O)nc2C)[nH]1

melting point	SMILES
175 to 177 °C	O=S(=O)(c1cccc2ccccc12)c1n[nH]c2ccc(OCC3CCNCC3)cc12
166 to 167 °C	CCN1OCCC(=Cc2cc(C(C)(C)C)c(O)c(C(C)(C)C)c2)C1=O
104 to 106 °C	COc1cccc(Cc2cnc(NCCSCc3nccs3)[nH]c2=O)c1
160 °C	Cc1ccc(C=Nc2c(-c3ccccc3C)nc3c4ccccc4ccn23)cc1
140 to 144 °C	CCN1c2cc(C)c(C)cc2N(C)C(=O)c2cccnc21
62 to 64 °C	O=C(CCCCNC(=O)C(=O)c1cn2c3c(cccc13)CCC2)NOCc1ccccc1
203 to 205 °C	Cn1nc(-c2ccccc2)c2c(C(F)(F)F)cc(OCC(=O)N[C@H]3CCc4ccccc43)nc21
166 to 167 °C	COC(=O)c1sc2c(c1C)c1ccccc1n2C
194 to 195 °C	COc1ccc(OC)c(C=CC(=O)C2C(=O)OC(=O)C(C(C)=O)=C2O)c1 (stereo not drawn)
143 to 145 °C	CC1=C(c2ccc(OCC(=O)O)c(Cl)c2Cl)CCCC1=O
68 to 69 °C	CCCCCCCCCCCCCCCCCCOC[C@H](CO)OC(=O)NC
91 to 94 °C	Cn1cc(/C=C/C#N)c2ccccc21
55 to 60 °C	COc1ccc(C=CC(=O)c2c(OC)cc(OC)cc2OC(=O)c2cccnc2)cc1
116 to 120 °C	COc1cc(Nc2c(C#N)cnc3cc(OCCCN4CCN(C)CC4)c(OC)cc23)c(Cl)cc1Cl
74 to 76 °C	Cc1ccc2cc(C)[nH]c2c1
168 to 170 °C	CC(C)(C)c1cc(SCC(=O)Nc2c(Cl)cccc2Cl)cc(C(C)(C)C)c1O
80 to 81 °C	Cc1oc(-c2ccccc2)nc1CCC(=O)c1ccc(Br)cc1
146 °C	CCCCN(C(=O)NCCCCCCNC(=O)N(CCCC)C1CC(C)(CC)NC(C)(CC)C1C)C1CC(C)(CC)NC(C)(CC)C1C (stereo not drawn)
104 to 111 °C	COc1ccc(C2COc3cc(OC(=O)C(C)(C)C)ccc3C2(O)Cc2ccc(OCc3ccccc3)cc2)cc1 (stereo not drawn)

melting point	SMILES
185 to 190 °C	CC(=O)C1=CCC2C3CCC4=CC(=O)CCC4(C)C3CCC12C (stereo not drawn)
82 to 85 °C	COC(=O)C(C)N(C(=O)CCl)c1c(Cl)cccc1Cl (stereo not drawn)
99 to 102 °C	COc1ccc(Nc2ncnc3occ(C)c23)cc1
156 to 158 °C	COc1cc(N)c(Cl)cc1C(=O)NCC1CCN(CCCCCC(=O)c2ccc(Cl)cc2)CC1
133 °C	O=C1C(=O)N(c2ccc(Cl)cc2[N+](=O)[O-])C(=O)N1c1cccc(Cl)c1
178 to 180 °C	O=C(CCNC(=O)n1cc(F)c(=O)[nH]c1=O)N1CCOCC1
48 to 50 °C	COCOc1c(OC)cc(C=O)c2cccc(C)c12
215 °C	Cn1c(=O)n(Cc2ccccc2)c(=O)c2cc(C(=O)NCc3ccc4c(c3)OCO4)ccc21
71 to 73 °C	CC(C)Cn1nc(OCCCc2ccc(OC(C)C)cc2Oc2ncc(C(F)(F)F)cc2Cl)cc1CCC(=O)O
171 to 173 °C	COc1ccc2sc(C(N)=O)c(SC)c2c1
113 to 114 °C	Cc1cc(C)nc(CCOc2ccc(NC(=O)N(C)C)cc2)c1
230 to 232 °C	COc1ccc(Nc2nc(Cl)nc3c(OC)cccc23)c(C)c1
96 to 97 °C	c1ccc(-n2c3ccccc3c3ccccc32)cc1
120 to 122 °C	CC(=O)NCC1CN(c2ccc(-c3cccc(CF)c3)c(F)c2)C(=O)O1 (stereo not drawn)
164 to 166 °C	CCOC(=O)c1cnc2c(c(C)nn2-c2ccccc2)c1N(Cc1ccccc1)S(=O)(=O)c1ccc(OC)cc1
159 to 160 °C	CCc1cc2c(c(CC)n1)c(C)c(C)c(=O)n2Cc1ccc(-c2ccccc2-c2nnn(C(c3ccccc3)(c3ccccc3)c3ccccc3)n2)cc1
91 °C	CC(Nc1ccc2[nH]c(=O)oc2c1)C(=O)N1CCC(Cc2ccccc2)CC1 (stereo not drawn)
181 to 183 °C	Cc1ccc(C(=O)Nc2ccccc2O)cc1F
